According to US7022830B2, “Hepatitis C virus codon optimized non-structural NS3/4A fusion gene” (priority 2000, dated 2006):

Columns and labels:
[1] = system: inositol mono-phosphate (IMP) dehydrogenase (IMPDH); settings: cited from earlier work
[2] = system: NS3-specific CD4+ T cell proliferation; experiment: in vitro recall assay, CD4+ T cell proliferation of lymph node cells, [3H] thymidine; assay type: in vivo, mice; settings: 100 μg rNS3 mixed with 1 mg ribavirin s.c.; ten days; 96 h culture (FIG. 9)
Protocol: This assay can be used with any ribavirin derivative or combinations of ribavirin derivatives to determine the extent that a particular vaccine formulation modulates a cellular immune response. […] The mice were sacrificed ten days post-immunization and their lymph nodes were harvested and drained. In vitro recall assays were then performed. (See e.g., Hultgren et al., J Gen Virol. 79:2381-91 (1998) and Hultgren et al., Clin. Diagn. Lab. Immunol. 4:630-632 (1997)). The amount of CD4^+ T cell proliferation was determined at 96 h of culture by the incorporation of [^3H] thymidine.

HBsAg = experiment: EIA end point antibody titer to HBsAg, Engerix vaccine with or without ribavirin (TABLE 19); assay type: in vivo, mice; settings: 1 mg ribavirin with 2 μg vaccine i.p.; booster week four, bled week six
Excerpt: (Engerix, SKB). […] A booster containing the same mixture was given on week four and all mice were bled on week six.

rNS3 = experiment: ribavirin dose finding, rNS3-specific IgG by EIA (FIG. 8, TABLE 17); assay type: in vivo, mice
Protocol: The levels of antibody to the antigen were then determined by EIA.
A second set of experiments was also performed. […] The mice were bled at week six and rNS3-specific IgG levels were determined by EIA as described previously.

NS3 = experiment: NS3-specific IgG subclasses by EIA after primary and booster injection (TABLE 18); assay type: in vivo, mice; settings: 10 μg rNS3 with 0.1 or 1.0 mg ribavirin at weeks 0 and 4; bled week six
Protocol: The mice were bled at week six and NS3-specific IgG subclasses were determined by EIA as described previously.

NC(=O)c1ncn([C@@H]2O[C@H](CO)[C@@H](O)[C@H]2O)n1 [ribavirin, 1-β-D-ribofuranosyl-1,2,4-triazole-3-carboxamide]
mode of action on IMPDH [1]: competitive inhibitor
T cell proliferative response versus 100 μg rNS3 in PBS [2]: much greater T cell proliferative response
effect on antibody response to Engerix vaccine (HBsAg): enhanced the response
effect on antibody levels (rNS3; higher doses (1-10 mg) ribavirin with 20 μg rNS3, week three (FIG. 8)): enhance antibody levels at week three
effect on antibody levels (rNS3; low doses (<1 mg) ribavirin with 20 μg rNS3, week one (FIG. 8)): enhance antibody levels at week one
effect on antibody levels (rNS3; low doses (<1 mg) ribavirin with 20 μg rNS3, week three (FIG. 8)): not at week three
effect on IgG subclass response (NS3): does not change the IgG subclass response
